Data published in patent US20110281812A1, “Compounds” (priority 2009, published 2011).

Test system: IL-6 production in LPS-stimulated murine spleenocytes
Assay: Inhibition of IL-6 production in LPS-stimulated murine spleenocytes in vitro
Assay type: cell-based
Settings: Mus musculus, 50 μM concentration of the compound, read-out: inhibition of interleukin-6 (IL-6) production
Experimental: Test and reference substances used in an in vitro assays were dissolved in dimethyl sulfoxide (DMSO) (Sigma Chemical Co., USA) at a concentration of 50 mM and were further diluted to test concentrations in appropriate cell culture medium.
After cervical dislocation, mouse spleens were removed using sterile dissection tools. Spleens were transferred to a pre-wetted cell strainer in a 50 mL sterile conical tube and cell suspension was made by gentle puddle. Cells were centrifuged (20 min, 300×g) and resuspended in 2 mL of sterile phosphate buffered saline (PBS) (Sigma Chemical Co., USA). Red blood cells were lysed by addition of 3 mL of sterile water and occasionally gentle shaking for 1 minute. Afterwards, the tube was filled to 40 mL with DMEM medium and centrifuged (20 min, 300×g). Cells were resuspended in DMEM supplemented with 1% FBS and seeded in a 24-well plate, 1×10^6 cells per mL medium.
Final concentrations of 50 μM, 25 μM, 12.5 μM, 6.3 μM and 3.1 μM of test compounds were prepared by diluting a 50 mM DMSO stock in Dulbecco's modified Eagle medium (DMEM) (Gibco, USA) supplemented with 1% heat inactivated fetal bovine serum (FBS) (BioWest, Ringmer, United Kingdom).
Cells were pre-incubated with the test compounds for 3 h at 37° C., in an atmosphere of 5% CO2 and 90% humidity. Afterwards, cells were stimulated with 1 μg/mL lipopolysaccharide (LPS, E. coli 0111:B4, Sigma Chemical Co., USA) and incubated overnight. Concentration of IL-6 was determined in cell supernatants by sandwich ELISA using capture and detection antibodies (R&D Systems, USA) according to the manufacturer's recommendations.
Inhibition (as percentage) was calculated using the following formula:
% inhibition=[1−(concentration of IL-6 in sample−concentration of IL-6 in negative control)/(concentration of IL-6 in positive control−concentration of IL-6 in negative control)]×100.
The positive control refers to LPS-stimulated samples that were not preincubated with the compounds.
The negative control refers to unstimulated and untreated samples.

| Compound | inhibition at 50 µM |
| --- | --- |
| CC[C@H]1OC(=O)[C@H](C)[C@@H](O[C@H]2C[C@@](C)(OC)[C@@H](O)[C@H](C)O2)[C@H](C)[C@@H](O[C@@H]2O[C@H](C)C[C@H](N(C)C)[C@H]2OCCCNC(=O)c2ccccn2)[C@](C)(O)C[C@@H](C)CN(C)[C@H](C)[C@@H](O)[C@]1(C)O [Example 31, 2′-O-{3-[(2-Pyridinylcarbonyl)amino]propyl}-9-deoxo-9a-methyl-9a-aza-9a-homoerythromycin A] | > 40% |
| CC[C@H]1OC(=O)[C@H](C)[C@@H](O[C@H]2C[C@@](C)(OC)[C@@H](O)[C@H](C)O2)[C@H](C)[C@@H](O[C@@H]2O[C@H](C)C[C@H](N(C)C)[C@H]2OCCCNC(=O)c2cnccn2)[C@](C)(O)C[C@@H](C)CN(C)[C@H](C)[C@@H](O)[C@]1(C)O [Example 23, 2′-O-{3-[(2-Pyrazinylcarbonyl)amino]propyl}-9-deoxo-9a-methyl-9a-aza-9a-homoerythromycin A] | > 40% |
| CC[C@H]1OC(=O)[C@H](C)[C@@H](O[C@H]2C[C@@](C)(OC)[C@@H](O)[C@H](C)O2)[C@H](C)[C@@H](O[C@@H]2O[C@H](C)C[C@H](N(C)C)[C@H]2OCCCNC(=O)c2ccc(Cl)cc2)[C@](C)(O)C[C@@H](C)CN(C)[C@H](C)[C@@H](O)[C@]1(C)O [Example 29, 2′-O-(3-{[(4-Chlorophenyl)carbonyl]amino}propyl)-9-deoxo-9a-methyl-9a-aza-9a-homoerythromycin A] | > 40% |
| CC[C@H]1OC(=O)[C@H](C)[C@@H](O[C@H]2C[C@@](C)(OC)[C@@H](O)[C@H](C)O2)[C@H](C)[C@@H](O[C@@H]2O[C@H](C)C[C@H](N(C)C)[C@H]2OCCCNC(=O)c2ccc(C)nc2Cl)[C@](C)(O)C[C@@H](C)CN(C)[C@H](C)[C@@H](O)[C@]1(C)O [Example 35, 2′-O-(3-{[(2-Chloro-6-methyl-3-pyridinyl)carbonyl]amino}propyl)-9-deoxo-9a-methyl-9a-aza-9a-homoerythromycin A] | > 40% |
| CC[C@H]1OC(=O)[C@H](C)[C@@H](O[C@H]2C[C@@](C)(OC)[C@@H](O)[C@H](C)O2)[C@H](C)[C@@H](O[C@@H]2O[C@H](C)C[C@H](N(C)C)[C@H]2OCCCNC(=O)c2cc(C)oc2C)[C@](C)(O)C[C@@H](C)CN(C)[C@H](C)[C@@H](O)[C@]1(C)O [Example 24, 2′-O-(3-{[(2,5-Dimethyl-3-furanyl)carbonyl]amino}propyl)-9-deoxo-9a-methyl-9a-aza-9a-homoerythromycin A] | > 40% |
| CC[C@H]1OC(=O)[C@H](C)[C@@H](O[C@H]2C[C@@](C)(OC)[C@@H](O)[C@H](C)O2)[C@H](C)[C@@H](O[C@@H]2O[C@H](C)C[C@H](N(C)C)[C@H]2OCCCNC(=O)c2cc(O)ccc2O)[C@](C)(O)C[C@@H](C)CN(C)[C@H](C)[C@@H](O)[C@]1(C)O [Example 32, 2′-O-{3-[(2,5-Dihydroxyphenylcarbonyl)amino]propyl}-9-deoxo-9a-methyl-9a-aza-9a-homoerythromycin A] | > 40% |
| CC[C@H]1OC(=O)[C@H](C)[C@@H](O[C@H]2C[C@@](C)(OC)[C@@H](O)[C@H](C)O2)[C@H](C)[C@@H](O[C@@H]2O[C@H](C)C[C@H](N(C)C)[C@H]2OCCCNC(=O)c2cc(C)n(C)c2C)[C@](C)(O)C[C@@H](C)CN(C)[C@H](C)[C@@H](O)[C@]1(C)O [Example 26, 2′-O-(3-{[(1,2,5-Trimethyl-1H-pyrrol-3-yl)carbonyl]amino}propyl)-9-deoxo-9a-methyl-9a-aza-9a-homoerythromycin A] | > 40% |
| CC[C@H]1OC(=O)[C@H](C)[C@@H](O[C@H]2C[C@@](C)(OC)[C@@H](O)[C@H](C)O2)[C@H](C)[C@@H](O[C@@H]2O[C@H](C)C[C@H](N(C)C)[C@H]2OCCCNC(=O)C(C)C)[C@](C)(O)C[C@@H](C)CN(C)[C@H](C)[C@@H](O)[C@]1(C)O [Example 3, 2′-O-{3-[(2-Methylpropanoyl)amino]propyl}-9-deoxo-9a-methyl-9a-aza-9a-homoerythromycin A] | > 40% |
| CC[C@H]1OC(=O)[C@H](C)[C@@H](O[C@H]2C[C@@](C)(OC)[C@@H](O)[C@H](C)O2)[C@H](C)[C@@H](O[C@@H]2O[C@H](C)C[C@H](N(C)C)[C@H]2OCCCNC(=O)[C@@H](N)CCSC)[C@](C)(O)C[C@@H](C)CN(C)[C@H](C)[C@@H](O)[C@]1(C)O [Example 12, 2′-O-[3-(L-methionylamino)propyl]-9-deoxo-9a-methyl-9a-aza-9a-homoerythromycin A] | > 40% |
| CC[C@H](C)[C@H](N)C(=O)NCCCO[C@H]1[C@H](O[C@@H]2[C@@H](C)[C@H](O[C@H]3C[C@@](C)(OC)[C@@H](O)[C@H](C)O3)[C@@H](C)C(=O)O[C@H](CC)[C@@](C)(O)[C@H](O)[C@@H](C)N(C)C[C@H](C)C[C@@]2(C)O)O[C@H](C)C[C@@H]1N(C)C [Example 11, 2′-O-[3-(L-isoleucylamino)propyl]-9-deoxo-9a-methyl-9a-aza-9a-homoerythromycin A] | > 40% |
| CC[C@H]1OC(=O)[C@H](C)[C@@H](O[C@H]2C[C@@](C)(OC)[C@@H](O)[C@H](C)O2)[C@H](C)[C@@H](O[C@@H]2O[C@H](C)C[C@H](N(C)C)[C@H]2OCCCNC(=O)c2cn(C)nc2C(F)(F)F)[C@](C)(O)C[C@@H](C)CN(C)[C@H](C)[C@@H](O)[C@]1(C)O [Example 28, 2′-O-[3-({[1-Methyl-3-(trifluoromethyl)-1H-pyrazol-4-yl]carbonyl}amino)propyl]-9-deoxo-9a-methyl-9a-aza-9a-homoerythromycin A] | > 40% |
| CC[C@H]1OC(=O)[C@H](C)[C@@H](O[C@H]2C[C@@](C)(OC)[C@@H](O)[C@H](C)O2)[C@H](C)[C@@H](O[C@@H]2O[C@H](C)C[C@H](N(C)C)[C@H]2OCCCNC(=O)[C@@H](N)Cc2ccccc2)[C@](C)(O)C[C@@H](C)CN(C)[C@H](C)[C@@H](O)[C@]1(C)O [Example 10, 2′-O-[3-(L-phenylalanylamino)propyl]-9-deoxo-9a-methyl-9a-aza-9a-homoerythromycin A] | > 40% |
| CC[C@H]1OC(=O)[C@H](C)[C@@H](O[C@H]2C[C@@](C)(OC)[C@@H](O)[C@H](C)O2)[C@H](C)[C@@H](O[C@@H]2O[C@H](C)C[C@H](N(C)C)[C@H]2OCCCNC(=O)c2ccc(N)cc2O)[C@](C)(O)C[C@@H](C)CN(C)[C@H](C)[C@@H](O)[C@]1(C)O [Example 33, 2′-O-(3-{[(4-Amino-2-hydroxyphenyl)carbonyl]amino}propyl)-9-deoxo-9a-methyl-9a-aza-9a-homoerythromycin A] | > 40% |
| CC[C@H]1OC(=O)[C@H](C)[C@@H](O[C@H]2C[C@@](C)(OC)[C@@H](O)[C@H](C)O2)[C@H](C)[C@@H](O[C@@H]2O[C@H](C)C[C@H](N(C)C)[C@H]2OCCCNC(=O)c2cccnc2Cl)[C@](C)(O)C[C@@H](C)CN(C)[C@H](C)[C@@H](O)[C@]1(C)O [Example 34, 2′-O-(3-{[(2-Chloro-3-pyridinyl)carbonyl]amino}propyl)-9-deoxo-9a-methyl-9a-aza-9a-homoerythromycin A] | > 40% |
| CC[C@H]1OC(=O)[C@H](C)[C@@H](O[C@H]2C[C@@](C)(OC)[C@@H](O)[C@H](C)O2)[C@H](C)[C@@H](O[C@@H]2O[C@H](C)C[C@H](N(C)C)[C@H]2OCCCNC(C)=O)[C@](C)(O)C[C@@H](C)CN(C)[C@H](C)[C@@H](O)[C@]1(C)O [Example 1, 2′-O[3-(Acetylamino)propyl]-9-deoxo-9a-methyl-9a-aza-9a-homoerythromycin A] | > 40% |
| CC[C@H]1OC(=O)[C@H](C)[C@@H](O[C@H]2C[C@@](C)(OC)[C@@H](O)[C@H](C)O2)[C@H](C)[C@@H](O[C@@H]2O[C@H](C)C[C@H](N(C)C)[C@H]2OCCCNC(=O)c2nccnc2N)[C@](C)(O)C[C@@H](C)CN(C)[C@H](C)[C@@H](O)[C@]1(C)O [Example 37, 2′-O-(3-{[(3-Amino-2-pyrazinyl)carbonyl]amino}propyl)-9-deoxo-9a-methyl-9a-aza-9a-homoerythromycin A] | > 40% |
| CC[C@H]1OC(=O)[C@H](C)[C@@H](O[C@H]2C[C@@](C)(OC)[C@@H](O)[C@H](C)O2)[C@H](C)[C@@H](O[C@@H]2O[C@H](C)C[C@H](N(C)C)[C@H]2OCCCNC(=O)c2cncn2C)[C@](C)(O)C[C@@H](C)CN(C)[C@H](C)[C@@H](O)[C@]1(C)O [Example 27, 2′-O-(3-{[(1-Methyl-1H-imidazol-5-yl)carbonyl]amino}propyl)-9-deoxo-9a-methyl-9a-aza-9a-homoerythromycin A] | > 40% |
| CC[C@H]1OC(=O)[C@H](C)[C@@H](O[C@H]2C[C@@](C)(OC)[C@@H](O)[C@H](C)O2)[C@H](C)[C@@H](O[C@@H]2O[C@H](C)C[C@H](N(C)C)[C@H]2OCCCNC(=O)c2nc(C)oc2C)[C@](C)(O)C[C@@H](C)CN(C)[C@H](C)[C@@H](O)[C@]1(C)O [Example 39, 2′-O-(3-{[(2,5-Dimethyl-1,3-oxazol-4-yl)carbonyl]amino}propyl)-9-deoxo-9a-methyl-9a-aza-9a-homoerythromycin A] | > 40% |
